The source made the active and inactive calls. The calls are words filed in the database; no cut-off is given here.
What was measured:
[1] = target: T1, S-adenosylmethionine decarboxylase proenzyme (Rattus norvegicus, UniProt P17708); experiment: Inhibitory concentration of compound against S-Adenosyl-methionine decarboxylase (SAMDC) from rat liver
T1 sequence (P17708 whole entry): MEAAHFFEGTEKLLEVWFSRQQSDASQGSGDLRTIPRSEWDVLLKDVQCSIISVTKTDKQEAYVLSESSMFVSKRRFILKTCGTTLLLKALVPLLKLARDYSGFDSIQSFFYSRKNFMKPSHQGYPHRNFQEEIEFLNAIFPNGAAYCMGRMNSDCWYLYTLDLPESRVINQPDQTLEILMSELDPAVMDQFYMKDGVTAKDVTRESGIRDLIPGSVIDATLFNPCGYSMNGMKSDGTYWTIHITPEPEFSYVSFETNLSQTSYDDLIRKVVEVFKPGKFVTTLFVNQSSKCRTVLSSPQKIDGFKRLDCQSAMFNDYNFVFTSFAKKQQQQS

[2] = target: T2, Diamine oxidase [copper-containing] (Rattus norvegicus, UniProt P36633); experiment: In vitro inhibition of Diamine oxidase (DAO) from rat small intestine.; assay type: tissue-based
T2 sequence (P36633 whole entry): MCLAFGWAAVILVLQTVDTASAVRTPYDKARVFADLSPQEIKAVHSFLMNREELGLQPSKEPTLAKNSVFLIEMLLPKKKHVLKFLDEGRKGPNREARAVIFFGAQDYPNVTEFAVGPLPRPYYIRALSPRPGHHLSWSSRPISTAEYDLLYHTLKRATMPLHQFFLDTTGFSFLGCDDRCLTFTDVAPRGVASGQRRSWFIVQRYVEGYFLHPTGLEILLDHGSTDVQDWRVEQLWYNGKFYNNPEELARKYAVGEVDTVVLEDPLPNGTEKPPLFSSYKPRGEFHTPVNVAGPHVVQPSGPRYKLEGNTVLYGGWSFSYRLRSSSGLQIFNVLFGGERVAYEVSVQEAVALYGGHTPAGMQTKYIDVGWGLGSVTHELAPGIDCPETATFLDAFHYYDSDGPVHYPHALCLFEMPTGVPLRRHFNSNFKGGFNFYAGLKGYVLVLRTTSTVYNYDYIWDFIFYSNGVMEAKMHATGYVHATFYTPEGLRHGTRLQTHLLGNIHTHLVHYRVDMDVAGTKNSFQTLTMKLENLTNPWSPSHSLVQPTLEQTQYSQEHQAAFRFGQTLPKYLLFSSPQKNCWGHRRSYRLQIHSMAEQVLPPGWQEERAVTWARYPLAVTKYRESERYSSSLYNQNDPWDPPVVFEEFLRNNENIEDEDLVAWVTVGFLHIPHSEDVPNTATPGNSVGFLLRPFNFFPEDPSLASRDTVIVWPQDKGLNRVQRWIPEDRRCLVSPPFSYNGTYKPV

[3] = target: T3, Ornithine decarboxylase (Rattus norvegicus) (UniProt P09057); experiment: Evaluated for inhibition of rat liver ornithine decarboxylase (ODC) at concentrations of 50 uM; No inhibition
T3 sequence (whole entry): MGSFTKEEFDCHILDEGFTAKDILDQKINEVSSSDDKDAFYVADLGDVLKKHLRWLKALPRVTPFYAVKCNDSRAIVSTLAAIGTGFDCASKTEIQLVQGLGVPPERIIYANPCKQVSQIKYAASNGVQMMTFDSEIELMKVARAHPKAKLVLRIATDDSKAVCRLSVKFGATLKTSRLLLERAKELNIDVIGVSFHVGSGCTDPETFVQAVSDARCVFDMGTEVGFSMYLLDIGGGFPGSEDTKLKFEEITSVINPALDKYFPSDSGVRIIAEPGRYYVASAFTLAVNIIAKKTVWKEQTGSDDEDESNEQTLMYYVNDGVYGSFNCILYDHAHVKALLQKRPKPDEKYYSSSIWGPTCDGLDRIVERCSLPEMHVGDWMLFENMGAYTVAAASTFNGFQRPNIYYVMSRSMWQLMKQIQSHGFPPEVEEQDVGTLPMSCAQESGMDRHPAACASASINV

T-24 = experiment: Antiproliferative activity against human T24 bladder carcinoma cells; assay type: functional, cell-based

Structure (SMILES) | IC50 [1] [µM] | IC50 [2] [µM] | inhibition [3] | IC50 (T-24) [µM]
CC/C(=N\N=C(N)N)c1cccc(C(=N)N)c1 | 0.088 | 15 | inactive | > 152
N=C(N)N/N=C/c1nccc(C(=N)N)n1 | 11 | 3.4 | inactive | > 126
N=C(N)N/N=C/c1cccc(C(N)=O)c1 | 20 | > 100 | inactive | > 184
N=C(NO)N/N=C/c1cccc(C(=N)N)n1 | 0.24 | 7.5 | inactive | 32.9
N=C(N)c1cccc(-c2cccc(C(=N)N)n2)n1 | 0.006 | 240 | inactive | 1.1
N=C(N)N/N=C/c1ccnc(C(=N)N)n1 | 0.53 | 8.05 | inactive | > 168
N=C(N)c1cccc(-c2cccc(C(=N)N)c2)c1 | 0.6 | – | inactive | > 160
N=C(N)c1cccc(/C=N/N=C(\N)N/N=C/c2cccc(C(=N)N)c2)c1 | 0.061 | 0.83 | inactive | > 101
N=C(N/N=C/c1cccc(C(=N)N)n1)N/N=C/c1cccc(C(=N)N)n1 | 0.12 | 0.76 | inactive | 49.8
CCCCNC(=N)c1cccc(/C=N/N=C(N)N)c1 | > 50 | 5 | inactive | > 28.5
N=C(NN)N/N=C/c1cccc(C(=N)N)c1 | 0.21 | 0.87 | inactive | 25
N=C(N)N/N=C/c1cccc(C(=N)NO)n1 | 25 | > 100 | inactive | > 119
N=C(N)N/N=C/c1cccc(C(=N)N)n1 | 0.09 | 0.87 | inactive | 10.1
N=C(NO)N/N=C/c1cccc(C(=N)N)c1 | 0.092 | 20 | inactive | 14.1
N=C(N)c1cc(-c2ccnc(C(=N)N)c2)ccn1 | 0.18 | 12.9 | inactive | > 151
N=C(N)c1ccnc(-c2cc(C(=N)N)ccn2)c1 | 3.1 | – | inactive | > 143
N=C(N)N/N=C/c1cccc(C(=N)N)c1 | 0.036 | 5.6 | inactive | 9.1
N=C(N)N/N=C/c1ccnc(C(=N)N)c1 | 0.33 | 3.2 | inactive | > 180
C/C(=N\N=C(N)N)c1cccc(C(=N)N)c1 | 0.066 | 2.7 | inactive | 118
N=C(NN)N/N=C/c1cccc(C(=N)N)n1 | 0.67 | 1.66 | inactive | 83.6
CCCCNC(=N)N/N=C/c1cccc(C(=N)N)c1 | 0.16 | 2.8 | inactive | > 26.8
CC(/C=N/NC(=N)N)=N\NC(=N)N [MITOGUAZONE] | – | 1.5 | inactive | 1.1
N=C(NN)c1cccc(/C=N/N=C(N)N)n1 | 0.084 | 19 | inactive | 60.5
N=C(N)c1cccc(-c2ccnc(C(=N)N)n2)c1 | 0.006 | 10 | inactive | 68.2

Source: ChEMBL document CHEMBL1126674, “S-adenosylmethionine decarboxylase inhibitors: new aryl and heteroaryl analogues of methylglyoxal bis(guanylhydrazone)” (J Med Chem, 1993)
